25 compounds from patent US10508109B2 (priority 2015, dated 2019) can be followed below.

One assay has as its target SUV39H2 (Homo sapiens (Human), UniProt Q9H5I1). The settings on record: read-out: IC50 (μM) Suv 39H2 assay.
For another assay, the system named is A549. In words: Cell-based assay, anti-proliferative activity (Cell Counting Kit-8, 72 hours). The settings on record: Homo sapiens. How it is done: 100 micro-L of cell suspension was seeded onto 96-well microtiter plate (ViewPlate-96FTC, PerkinElmer). […] Cellular growth was determined using Cell Counting Kit-8 (DOJINDO) at 72 hours after the exposure of the candidate inhibitors. […] Accurate IC50 values were calculated as described previously.
In general terms: Tetrazolium assays rely on reduction of a dye to a coloured formazan, in cell work by metabolically active cells.

A further assay concerns CCD-18Co. The assay is described as above. The settings on record: Homo sapiens, read-out: IC50 (μM) CCD-18Co. How it is done:
(§1) Active candidate inhibitors against SUV39H2 were evaluated for their target-specific cytotoxicity using A549, HCT-116, HFL1, CCD-18Co and PC14. 100 micro-L of cell suspension was seeded onto 96-well microtiter plate (ViewPlate-96FTC, PerkinElmer). The initial cell concentration of A549, HCT-116, HFL1, CCD-18Co and PC14 were 3,000 cells/well, 2,000 cells/well and 2,500 cells/well, respectively. Cellular growth was determined using Cell Counting Kit-8 (DOJINDO) at 72 hours after the exposure of the candidate inhibitors. IC50 was used as an indicator of the anti-proliferative activity of the inhibitors, and calculated by serial dilution method (0, 1.5625, 3.125, 6.25, 12.5, 25, 50, and 100 micro-M). Accurate IC50 values were calculated as described previously.

The test system of the next assay is HFL1. Described as above. The settings on record: Homo sapiens, read-out: IC50 (μM) HFL1. The procedure: as §1
For the next assay, the system named is HCT-116. The description is as above. To be noted: Homo sapiens, read-out: IC50 (μM) HCT-116. The procedure: as §1
The mark [1] stands for this setting: A549, 72 h, read-out: IC50 (μM) A549.
The mark [2] stands for this setting: A549 cells, Cell Counting Kit-8, 72 hours, read-out: IC50 (μM) A549.
Where [3] appears, read: CCD-18Co cells, Cell Counting Kit-8, 72 hours.
[4] abbreviates: HFL1 cells, Cell Counting Kit-8, 72 hours.
[5] abbreviates: HCT-116 cells, Cell Counting Kit-8, 72 hours.
The mark [6] stands for this setting: A549 cells, 72 hours exposure, Cell Counting Kit-8, read-out: A549 IC50.

Where a name gives a salt, the structure may show the parent alone. Read-outs that look alike come from different tables or passages of the source.

Sequence of SUV39H2 (Q9H5I1 whole entry): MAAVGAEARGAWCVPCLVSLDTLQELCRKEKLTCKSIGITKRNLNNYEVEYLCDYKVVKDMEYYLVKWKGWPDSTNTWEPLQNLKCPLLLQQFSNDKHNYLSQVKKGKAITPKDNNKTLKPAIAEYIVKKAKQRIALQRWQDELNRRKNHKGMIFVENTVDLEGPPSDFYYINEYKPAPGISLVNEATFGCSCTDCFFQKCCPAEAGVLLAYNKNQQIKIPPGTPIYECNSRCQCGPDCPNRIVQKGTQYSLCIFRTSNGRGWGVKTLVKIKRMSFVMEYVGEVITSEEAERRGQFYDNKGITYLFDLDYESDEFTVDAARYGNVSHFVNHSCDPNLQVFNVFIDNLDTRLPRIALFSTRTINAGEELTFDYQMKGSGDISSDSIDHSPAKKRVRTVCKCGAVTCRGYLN

In the case of “3-amino-N-(3-(2-(5-bromo-2,4-dimethoxyphenyl)imidazo[1,2-a]pyrimidin-7-yl)cyclopentyl)propanamide hydrochloride [Example 68]”, the IC50 on SUV39H2 (enzyme assay) is 0.0162 µM.

For the compound `COc1cc(OC)c(-c2cn3ccc(N4CCCC4)cc3n2)cc1Br` [Example 1, 2-(5-bromo-2,4-dimethoxyphenyl)-7-(pyrrolidin-1-yl)imidazo[1,2-a]pyridine], the 50% inhibitory concentration (IC50) at SUV39H2 (enzyme assay) turned out to be 0.0182 µM; in the assay on A549 (setting [1]), 2.5 µM; in the assay with CCD-18Co (CCD-18Co, 72 h), 2.6 µM; with HFL1 (HFL1, 72 h), 1.6 µM; in the assay on HCT-116 (HCT-116, 72 h), 1.7 µM.

As to `COc1cc(OC)c(-c2cn3ccc(N)nc3n2)cc1Br` [Example 2, 2-(5-bromo-2,4-dimethoxyphenyl)imidazo[1,2-a]pyrimidin-7-amine hydrochloride], the half-inhibitory concentration (IC50) is 0.0169 µM on SUV39H2; 18 µM in the assay with A549 (setting [1]); 16 µM in the assay with CCD-18Co (CCD-18Co, 72 h); 16 µM in the assay on HFL1 (HFL1, 72 h); 17 µM in the assay on HCT-116 (HCT-116, 72 h).

In the case of `COc1cc(OC)c(-c2cn3ccc(N)cc3n2)cc1Br` [Example 5, 2-(5-bromo-2,4-dimethoxyphenyl)imidazo[1,2-a]pyridin-7-amine], the concentration for half-maximal inhibition (IC50) on SUV39H2 (enzyme assay) is 0.0103 µM; with A549 (setting [2]) it was 3.6 µM; in the assay on CCD-18Co (setting [3]) it was 3.8 µM; in the assay on HFL1 (setting [4]), 2.1 µM; with HCT-116 (setting [5]), 3.1 µM.

For the compound `COc1cc(OC)c(-c2cn3ccc(N)nc3n2)cc1Cl` [Example 8, 2-(5-chloro-2,4-dimethoxyphenyl)imidazo[1,2-a]pyrimidin-7-amine], the half-maximal inhibitory concentration (IC50) at SUV39H2 (enzyme assay) turned out to be 0.0182 µM; with A549 (setting [2]), 17 µM; in the assay on CCD-18Co (setting [3]), 19 µM; in the assay on HFL1 (setting [4]), 21 µM; in the assay on HCT-116 (setting [5]), 16 µM.

Consider `COc1cc(OC)c(-c2cn3ccc(NCCN)cc3n2)cc1Cl` [Example 10, N^1-(2-(5-chloro-2,4-dimethoxyphenyl)imidazo[1,2-a]pyridin-7-yl)ethane-1,2-diamine dihydrochloride], for which the IC50 at SUV39H2 was found to be 0.015 µM; in the assay on A549 (setting [1]), 6.8 µM; with CCD-18Co (CCD-18Co, 72 h), 7.1 µM; with HFL1 (HFL1, 72 h), 3.7 µM; in the assay with HCT-116 (HCT-116, 72 h), 4.2 µM.

For the compound `COc1cc(OC)c(-c2cn3ccc(N4CCC(NC(=O)OC(C)(C)C)C4)nc3n2)cc1Br` (stereo not shown) [Example 13], the 50% inhibitory concentration (IC50) came to 0.0219 µM on SUV39H2 (enzyme assay); 5.7 µM in the assay with A549 (setting [2]); 4.4 µM in the assay with CCD-18Co (setting [3]); 3.7 µM with HFL1 (setting [4]); 6.6 µM with HCT-116 (setting [5]).

Regarding `COc1cc(OC)c(-c2cn3ccc(N4CCC(NC(=O)OC(C)(C)C)CC4)cc3n2)cc1Cl` [Example 14, tert-butyl {1-[2-(5-chloro-2,4-dimethoxyphenyl)imidazo[1,2-a]pyridin-7-yl]piperidin-4-yl}carbamate], the IC50 on SUV39H2 (enzyme assay) is 0.0341 µM; in the assay on A549 (setting [2]) it was 2.7 µM; in the assay with CCD-18Co (setting [3]), 1.9 µM; with HFL1 (setting [4]), 1.8 µM; in the assay on HCT-116 (setting [5]), 2 µM.

Turning to `COc1cc(OC)c(-c2cn3ccc(N4CCC(N)CC4)cc3n2)cc1Cl` [Example 15, 1-[2-(5-chloro-2,4-dimethoxyphenyl)imidazo[1,2-a]pyridin-7-yl]piperidin-4-amine], the IC50 was determined as 0.0133 µM on SUV39H2 (enzyme assay); 3.5 µM with A549 (setting [2]); 6.7 µM in the assay with CCD-18Co (setting [3]); 2.7 µM with HFL1 (setting [4]); 3.4 µM with HCT-116 (setting [5]).

For `COc1cc(OC)c(-c2cn3ccc(N4CCC(CN)CC4)cc3n2)cc1Cl` [Example 16, (1-(2-(5-Chloro-2,4-dimethoxyphenyl)imidazo[1,2-a]pyridin-7-yl)piperidin-4-yl)-methanamine hydrochloride], the IC50 at SUV39H2 was determined as 0.0122 µM; in the assay with A549 (setting [1]) it was 8.8 µM; with CCD-18Co (CCD-18Co, 72 h) it was 14 µM; in the assay on HFL1 (HFL1, 72 h), 11 µM; in the assay with HCT-116 (HCT-116, 72 h), 8.7 µM.

As to `COc1cc(OC)c(-c2cn3ccc(O)cc3n2)cc1Cl` [Example 20, 2-(5-chloro-2,4-dimethoxyphenyl)imidazo[1,2-a]pyridin-7-ol], on SUV39H2 (enzyme assay), the half-maximal inhibitory concentration (IC50) came to 0.09 µM.

Consider `COc1cc(OC)c(-c2cn3ccc(N4CCC(NC(N)=O)C4)cc3n2)cc1Cl` (stereo not shown) [Example 38, 1-(1-(2-(5-chloro-2,4-dimethoxyphenyl)imidazo[1,2-a]pyridin-7-yl)pyrrolidin-3-yl)urea], for which, on SUV39H2 (enzyme assay), the IC50 came out at 0.00411 µM.

Take `COc1cc(OC)c(-c2cn3ccc(N4CCC(NC(=O)[C@H](CCC(N)=O)NC(=O)OC(C)(C)C)C4)cc3n2)cc1Cl` (stereo partly drawn) [Example 39, tert-butyl ((2S)-5-amino-1-((1-(2-(5-chloro-2,4-dimethoxyphenyl)imidazo[1,2-a]pyridin-7-yl)pyrrolidin-3-yl)amino)-1,5-dioxopentan-2-yl)carbamate]: the half-inhibitory concentration (IC50) at SUV39H2 (enzyme assay) is 0.00489 µM.

Turning to `COc1cc(OC)c(-c2cn3ccc(N)nc3n2)cc1C#N` [Example 46, 5-(7-aminoimidazo[1,2-a]pyrimidin-2-yl)-2,4-dimethoxybenzonitrile], the IC50 on SUV39H2 (enzyme assay) is 0.0453 µM.

As to `COc1cc(OC)c(-c2cn3ccc(N4CCC(NC(=O)CCN)C4)cc3n2)cc1Cl` (stereo not shown) [Example 50, 3-amino-N-(1-(2-(5-chloro-2,4-dimethoxyphenyl)imidazo[1,2-a]pyridin-7-yl)pyrrolidin-3-yl)propanamide], the IC50 on SUV39H2 (enzyme assay) was determined as 0.00575 µM.

Consider `COc1cc(OC)c(-c2cn3ccc(N4CCC(NC(=O)NCCN)C4)cc3n2)cc1Cl` (stereo not shown) [Example 62, 1-(2-aminoethyl)-3-(1-(2-(5-chloro-2,4-dimethoxyphenyl)imidazo[1,2-a]-pyridin-7-yl)pyrrolidin-3-yl)urea], for which the IC50 on SUV39H2 (enzyme assay) worked out at 0.00514 µM.

In the case of `COc1cc(OC)c(-c2cn3ccc(NCCN4CCCCC4)cc3n2)cc1Cl` [Example 64, 2-(5-chloro-2,4-dimethoxyphenyl)-N-(2-(piperidin-1-yl)ethyl)imidazo[1,2-a]pyridine-7-amine], the IC50 was 4.2 µM in the assay on A549 (setting [1]); 4.5 µM with CCD-18Co (CCD-18Co, 72 h); 2.6 µM in the assay on HFL1 (HFL1, 72 h); 3.4 µM in the assay on HCT-116 (HCT-116, 72 h).

Consider `COc1cc(OC)c(-c2cn3ccc(N4CCCC4)nc3n2)cc1C#N` [Example 69, 2,4-dimethoxy-5-(7-(pyrrolidin-1-yl)imidazo[1,2-a]pyrimidin-2-yl)-benzonitrile hydrochloride], for which the IC50 on SUV39H2 came to 0.0141 µM.

Regarding `COc1cc(OC)c(-c2cn3ccc(C)cc3n2)cc1Cl` [Example 76, 2-(5-chloro-2,4-dimethoxyphenyl)-7-methylimidazo[1,2-a]pyridine hydrobromide], the IC50 at SUV39H2 (enzyme assay) was 0.0665 µM.

Consider `COc1cc(OC)c(-c2cn3ccc(N4CCN(CCC(=O)O)CC4)cc3n2)cc1Cl` [Example 133, 3-(4-(2-(5-chloro-2,4-dimethoxyphenyl)imidazo[1,2-a]pyridin-7-yl)piperazin-1-yl)propanoic acid], for which, on SUV39H2 (enzyme assay), the 50% inhibitory concentration (IC50) was 0.0137 µM.

In the case of `COc1cc(OC)c(-c2cn3ccc(C4=CCN(CCC(=O)O)CC4)cc3n2)cc1Cl` [Example 141, 3-(4-(2-(5-chloro-2,4-dimethoxyphenyl)imidazo[1,2-a]pyridin-7-yl)-5,6-dihydropyridin-1(2H)-yl)propanoic acid], on SUV39H2 (enzyme assay), the concentration for half-maximal inhibition (IC50) came out at 0.0777 µM.

Consider `COCC(=O)N1CCN(c2ccn3cc(-c4cc(Cl)c(OC)cc4OC)nc3c2)C(C)C1` (stereo not shown) [Example 313, 1-(4-(2-(5-chloro-2,4-dimethoxyphenyl)imidazo[1,2-a]pyridin-7-yl)-3-methylpiperazin-1-yl)-2-methoxyethanone], for which the IC50 with A549 (setting [6]) was found to be 10 µM.

For the compound `COc1cc(OC)c(-c2cn3ccc(N4CCN(c5cnc(N6CCNCC6)nc5)CC4)cc3n2)cc1Cl` [Example 344, 2-(5-chloro-2,4-dimethoxyphenyl)-7-(4-(2-(piperazin-1-yl)pyrimidin-5-yl)piperazin-1-yl)imidazo[1,2-a]pyridine bis(2,2,2-trifluoroacetate)], the 50% inhibitory concentration (IC50) in the assay on A549 (setting [6]) was 0.35 µM.

Turning to `COC(=O)c1ccc(CN[C@H]2CC[C@@H](Nc3ccn4cc(-c5cc(Cl)c(OC)cc5OC)nc4c3)CC2)cc1` [Example 409, methyl 4-(((cis-4-((2-(5-chloro-2,4-dimethoxyphenyl)imidazo[1,2-a]pyridin-7-yl)amino)cyclohexyl)amino)methyl)benzoate bis(2,2,2-trifluoroacetate)], the 50% inhibitory concentration (IC50) in the assay on A549 (setting [6]) came to 0.86 µM.

Turning to `COc1cc(OC)c(-c2cn3ccc(N4CC[C@H](NCC5CCN(S(=O)(=O)C6CC6)CC5)C4)cc3n2)cc1Cl` [Example 421, (S)-1-(2-(5-chloro-2,4-dimethoxyphenyl)imidazo[1,2-a]pyridin-7-yl)-N-((1-(cyclopropylsulfonyl)piperidin-4-yl)methyl)pyrrolidin-3-amine], the IC50 in the assay on A549 (setting [6]) was 0.94 µM.

In general, IC50 refers to the point on the concentration scale where inhibition reaches its midpoint.
